Key:
[1] = system: A549 cells; test: MTT cytotoxicity assay, A549; details: read-out: cytotoxicity IC50; A549, lung; MTT, 48 h treatment; spread in brackets
Excerpt: (§1) (a) Dulbecco's Modified Eagle Medium (DMEM), Dulbecco's phosphate buffered saline (DPBS), fetal bovine serum (FBS) and 0.25% trypsin/EDTA solutions were purchased from Cellgro (Manassas, Va.). Penicillin-streptomycin solutions were purchased from Mediatech (Manassas, Va.). (b) HeLa (CCL-2TM) cells, A549, A2870, A2870/CP70, MCF-7, PC-3, and MRC-5 cells were purchased from American Type Culture Collection (ATCC, Manassas, Va., USA). (c) HCT116 cells were kindly donated by Laura Trudel (MIT). HeLa, A549, MCF-7, and MRC-5 cells were cultured using DMEM supplemented with 10% FBS and 1% penicillin-streptomycin. A2870, A2870/CP70, and PC-3 cells were cultured in RPMI supplemented with 10% FBS and 1% penicillin-streptomycin. HCT116 cells were cultured in McCoy's supplemented with 10% FBS and 1% penicillin-streptomycin. All cell-culture experiments were performed in the aforementioned media in an incubator operating at 37° C. and in the presence of a humidified atmosphere containing 5.0% CO2. Cells were harvested using a 0.25% trypsin/EDTA solution.
(§2) The cytotoxicity of the compounds was assessed by means of the MTT assay (MTT=3-(4,5-dimethyl-2-thiazolyl)-2,5-diphenyl-2H-tetrazolium bromide). Typically, on day one, ˜1×10^3 cells were seeded into 96-well plates in 100 μL media per well. […] The optical density for each well at 550 nm was measured with a microplate reader.

[2] = system: A2780/CP70 cells (CisPt resistant); test: MTT cytotoxicity assay, A2780/CP70; details: read-out: cytotoxicity IC50; A2780/CP70, ovarian (CisPt resistant); MTT, 48 h treatment; spread in brackets
Excerpt: as §1, §2

[3] = system: all cell lines; test: MTT cytotoxicity assay, across the cell lines; type: cell-based; details: non-tumorigenic lung fibroblast cells (MRC-5) vs ovarian carcinoma cells (A2780)
Excerpt: as §1, §2

[4] = system: A549 cells; test: JC-1 mitochondrial membrane potential assay; type: cell-based
Experimental: To investigate the effect of Pt(IV)(α-TOS)(OEt) on mitochondria, changes in the mitochondrial membrane potential were assessed by the JC-1 assay. JC-1 (5,5′,6,6′-tetrachloro-1,1′3,3′-tetraethylbenzimidazolylcarbocyanine iodide) is a positively charged lipophilic dye, which accumulates in the mitochondria of healthy cells as red-emitting aggregates. When the mitochondrial membrane is compromised, JC-1 de-aggregates into monomeric forms that emit green fluorescence. […] These findings were confirmed using flow cytometry. A large population of untreated and Pt(IV)(α-TOS)(OEt)-treated A549 cells were examined.
In order to monitor the cell cycle, flow cytometry studies were carried out. A549 cells were incubated with and without the test compounds for 24 and 48 h at 37° C. Cells were harvested from adherent cultures by trypsinization and combined with all detached cells from the incubation medium to assess total cell viability. Following centrifugation at 1000 rpm for 5 min, cells were washed with PBS and then fixed with 70% ethanol in PBS. Fixed cells were collected by centrifugation at 2500 rpm for 3 min, washed with PBS and centrifuged as before. Cellular pellets were re-suspended in 50 μg/mL propidium iodide (Sigma) in PBS for nucleic acids staining and treated with 100 μg/mL RNaseA (Sigma). DNA content was measured on a FACSCalibur-HTS flow cytometer (BD Biosciences) using laser excitation at 488 nm and 20,000 events per sample were acquired. Cell cycle profiles were analysed using the ModFit software. For the apoptosis experiments, the Annexin V-FITC Early Apoptosis Detection Kit (Cell Signaling Technology) was used. […] The samples were kept on ice prior to being read on the FACSCalibur-HTS flow cytometer (BD Biosciences) (20,000 events per sample were acquired). Cell populations were analysed using the FlowJo software (Tree Star). […] The cells were incubated for 30 min, harvested, and analysed by using the FACSCalibur-HTS flow cytometer (BD Biosciences) (20,000 events per sample were acquired). […] Cell populations were analysed using the FlowJo software (Tree Star).

[5] = system: A2780 ovarian cancer cells; test: PI-annexin-V dual staining apoptosis assay; type: cell-based; details: 4 μM for 48 h

Compound: CC[O][Pt]([NH2])([NH2])([Cl])([Cl])[O]C(=O)CCC(=O)Oc1c(C)c(C)c2c(c1C)CCC(C)(CCCC(C)CCCC(C)CCCC(C)C)O2 (stereo not drawn) [Pt(IV)(α-TOS)(OEt)]
- IC50 [1]: 1300 nM
- IC50 [2]: 1100 nM
- reduction in toxicity for MRC-5 compared to A2780 [3]: 265 fold
- cells expressing green JC-1 fluorescence (FL1-H), flow cytometry ([4]; 25 μM, 4 h): a marked increase in cells expressing green fluorescence
- JC-1 fluorescence (mitochondrial membrane disruption), microscopy ([4]; cisplatin or Pt(IV)(α-TOS)(OEt) at 20 μM, 4 hours): A similar phenomenon was observed
- cell population with characteristics of early apoptosis [5]: 28%

— patent US9133225B2, “Dual targeting anticancer agents” (priority 2013, dated 2015)
